Experiment: xn = mol fraction of the nth substance listed
Settings: 101 kPa, Liquid

CCn1cc[n+](C)c1.O=S(=O)([O-])C(F)(F)F [1-ethyl-3-methylimidazolium trifluoromethanesulfonate] + CC(C)=O
Settings	mass density, 278.15 K [kg/m3]	mass density, 288.15 K [kg/m3]	mass density, 298.15 K [kg/m3]	mass density, 308.15 K [kg/m3]	mass density, 318.15 K [kg/m3]	speed of sound, 278.15 K [m/s]	speed of sound, 288.15 K [m/s]	speed of sound, 298.15 K [m/s]	speed of sound, 308.15 K [m/s]	speed of sound, 318.15 K [m/s]
x1 = 0.05	887.53	876.86	866.08	855.21	844.23	1280.3	1233.3	1191.1	1149.9	1109.3
x1 = 0.0999	953.96	943.44	932.87	922.28	911.64	1299.7	1253.5	1214.3	1176	1138.2
x1 = 0.1501	1010.97	1000.75	990.52	980.27	969.97	1313.5	1273.1	1236.6	1200.8	1165.4
x1 = 0.2004	1060.17	1050.21	1040.29	1030.37	1020.44	1327.8	1291.8	1257.5	1223.7	1190.4
x1 = 0.2988	1138.02	1128.31	1118.66	1109.04	1099.45	1356.4	1324.7	1293.5	1262.9	1232.8
x1 = 0.4007	1201.1	1191.78	1182.49	1173.23	1164.02	1382.4	1353	1324.3	1296.1	1268.4
x1 = 0.5006	1250.85	1241.69	1232.59	1223.54	1214.55	1404.5	1376.7	1349.7	1323	1297.1
x1 = 0.6007	1291.81	1282.81	1273.89	1265.02	1256.22	1423.5	1397.2	1371.6	1346.5	1322
x1 = 0.7014	1326.9	1318.05	1309.28	1300.58	1291.94	1441	1415.8	1391.3	1367.3	1343.8
x1 = 0.7998	1354.5	1345.77	1337.12	1328.53	1320.01	1455.6	1430.9	1407	1383.7	1361
x1 = 0.8435	1365.96	1357.29	1348.69	1340.15	1331.68	1462.5	1437.8	1414.3	1391.2	1368.7
x1 = 0.9006	1379.4	1370.81	1362.28	1353.81	1345.41	1469.4	1445.7	1422.5	1399.9	1377.7
x1 = 0.9489	–	–	–	–	1356.74	–	–	–	–	1384.7
x1 = 0.9501	1390.54	1382	1373.52	1365.09	–	1475.9	1452.1	1429.1	1406.7	–

CCn1cc[n+](C)c1.O=S(=O)([O-])C(F)(F)F [1-ethyl-3-methylimidazolium trifluoromethanesulfonate] + CCOC(C)=O
Settings	mass density [kg/m3]	speed of sound [m/s]
278.15 K, x1 = 0.0501	967.32	1238
278.15 K, x1 = 0.1003	1011.38	1249
278.15 K, x1 = 0.1502	1051.15	1263.8
278.15 K, x1 = 0.2004	1087.57	1280.5
278.15 K, x1 = 0.3002	1150.92	1313.9
278.15 K, x1 = 0.4002	1203.84	1343.7
278.15 K, x1 = 0.5002	1248.95	1371.2
278.15 K, x1 = 0.6009	1288.17	1397
278.15 K, x1 = 0.6999	1321.89	1420.5
278.15 K, x1 = 0.8006	1351.91	1442.8
278.15 K, x1 = 0.8492	1365.02	1453
278.15 K, x1 = 0.9008	1378.11	1463.2
278.15 K, x1 = 0.9501	1389.89	1472.6
288.15 K, x1 = 0.0501	955.66	1193.7
288.15 K, x1 = 0.1003	999.99	1206.1
288.15 K, x1 = 0.1502	1040.09	1222.8
288.15 K, x1 = 0.2004	1076.84	1241.5
288.15 K, x1 = 0.3002	1140.7	1278.8
288.15 K, x1 = 0.4002	1194.03	1311.7
288.15 K, x1 = 0.5002	1239.47	1341.6
288.15 K, x1 = 0.6009	1278.96	1369.4
288.15 K, x1 = 0.6999	1312.9	1394
288.15 K, x1 = 0.8006	1343.1	1417.9
288.15 K, x1 = 0.8492	1356.29	1428.6
288.15 K, x1 = 0.9008	1369.47	1439.3
288.15 K, x1 = 0.9501	1381.32	1449
298.15 K, x1 = 0.0501	943.87	1150
298.15 K, x1 = 0.1003	988.52	1163.9
298.15 K, x1 = 0.1502	1028.97	1182.5
298.15 K, x1 = 0.2004	1066.05	1203
298.15 K, x1 = 0.3002	1130.49	1244.2
298.15 K, x1 = 0.4002	1184.26	1280.4
298.15 K, x1 = 0.5002	1230.04	1312.7
298.15 K, x1 = 0.6009	1269.8	1342.4
298.15 K, x1 = 0.6999	1303.96	1369
298.15 K, x1 = 0.8006	1334.35	1393.7
298.15 K, x1 = 0.8492	1347.63	1404.8
298.15 K, x1 = 0.9008	1360.89	1416
298.15 K, x1 = 0.9501	1372.81	1426
308.15 K, x1 = 0.0501	931.96	1106.8
308.15 K, x1 = 0.1003	976.94	1121.8
308.15 K, x1 = 0.1502	1017.77	1142.2
308.15 K, x1 = 0.2004	1055.22	1165.1
308.15 K, x1 = 0.3002	1120.28	1210.2
308.15 K, x1 = 0.4002	1174.52	1249.5
308.15 K, x1 = 0.5002	1220.67	1284.4
308.15 K, x1 = 0.6009	1260.71	1316
308.15 K, x1 = 0.6999	1295.11	1344.2
308.15 K, x1 = 0.8006	1325.68	1370
308.15 K, x1 = 0.8492	1339.04	1381.6
308.15 K, x1 = 0.9008	1352.38	1393.2
308.15 K, x1 = 0.9501	1364.37	1403.6
318.15 K, x1 = 0.0501	919.88	1063.9
318.15 K, x1 = 0.1003	965.24	1080.1
318.15 K, x1 = 0.1502	1006.48	1102.3
318.15 K, x1 = 0.2004	1044.34	1127.3
318.15 K, x1 = 0.3002	1110.07	1176.5
318.15 K, x1 = 0.4002	1164.82	1219
318.15 K, x1 = 0.5002	1211.35	1256.6
318.15 K, x1 = 0.6009	1251.69	1290.1
318.15 K, x1 = 0.6999	1286.31	1319.8
318.15 K, x1 = 0.8006	1317.07	1346.8
318.15 K, x1 = 0.8492	1330.51	1358.8
318.15 K, x1 = 0.9008	1343.92	1370.8
318.15 K, x1 = 0.9501	1355.98	1381.6
328.15 K, x1 = 0.0501	907.62	1021.3
328.15 K, x1 = 0.1003	953.35	1039.2
328.15 K, x1 = 0.1502	995.07	1062.7
328.15 K, x1 = 0.2004	1033.39	1090
328.15 K, x1 = 0.3002	1099.87	1143.3
328.15 K, x1 = 0.4002	1155.15	1189.3
328.15 K, x1 = 0.5002	1202.08	1229.4
328.15 K, x1 = 0.6009	1242.72	1264.9
328.15 K, x1 = 0.6999	1277.58	1296
328.15 K, x1 = 0.8006	1308.52	1324.1
328.15 K, x1 = 0.8492	1322.04	1336.5
328.15 K, x1 = 0.9008	1335.52	1348.9
328.15 K, x1 = 0.9501	1347.65	1360.1
